Laboratory results from PubChem BioAssay AID858 (Vanderbilt High Throughput Screening Facility, 2007).
Activity calls are given as the source filed them.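 The calls were made as follows: active = at least two of three replicate dose series yielding a converging curve fit, whether well or thinly supported; inactive = the rest.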

Each compound was assayed against D(1A) dopamine receptor (Homo sapiens) (UniProt P21728) (assay: D1 receptor modulation with EC30 dopamine, dose response, D1 allosteric modulator project, cell-based, CRE-luciferase, HEK293 (AID 858);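 also: HEK 293 cells bearing human D1 receptor stimulated by dopamine at its EC30; luciferase light from a cAMP response element reporter gene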).
Chain of D(1A) dopamine receptor (Homo sapiens) (P21728 whole entry, looked up): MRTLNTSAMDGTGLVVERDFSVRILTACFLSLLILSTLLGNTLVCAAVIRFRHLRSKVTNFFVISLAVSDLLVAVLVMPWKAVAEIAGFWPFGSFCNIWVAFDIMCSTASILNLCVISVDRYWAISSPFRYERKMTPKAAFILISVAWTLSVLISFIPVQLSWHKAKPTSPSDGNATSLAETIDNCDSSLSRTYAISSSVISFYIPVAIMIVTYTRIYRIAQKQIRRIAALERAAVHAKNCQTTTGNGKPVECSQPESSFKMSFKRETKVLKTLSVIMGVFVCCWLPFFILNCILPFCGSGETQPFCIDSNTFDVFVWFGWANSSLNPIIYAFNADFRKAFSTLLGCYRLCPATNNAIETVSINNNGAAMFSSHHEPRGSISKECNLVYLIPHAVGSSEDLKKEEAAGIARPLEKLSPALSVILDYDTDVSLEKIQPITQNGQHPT

outcome | EC50 [nM] | Compound
inactive |  | O=C(OCC#CCSc1nnc(-c2ccc(Br)cc2)o1)c1ccco1
inactive |  | CCC(=O)n1nc(-c2cccnc2)nc1NCc1ccc(OC)cc1
inactive |  | CCc1nc(N2CCCCC2)c2oc3ccccc3c2n1
inactive |  | Cc1cc(C)n2c3c(c(C#N)c2n1)CCCC3
inactive |  | O=C(c1ccco1)N1CCN(c2nc(C3CC3)nc3sc4c(c23)CCCC4)CC1
inactive |  | Cc1cc(=O)n(CC=C(Cl)Cl)c2ccccc12
inactive |  | CCOc1ccc(N/C(SC)=C(/C#N)C(N)=O)cc1
inactive |  | CCCCNC(=O)c1ccc2nc(-c3ccco3)c(-c3ccco3)nc2c1
inactive |  | N#Cc1c2c(nc(N)c1-c1ccccc1)CCCCC2
inactive |  | Cc1cccc(-c2c3c(=O)n(C)c(=O)n(C)c3cn2-c2ccccc2O)c1
inactive |  | CCOC(=O)c1c(C)c(C(=O)NCc2ccc3c(c2)OCO3)c(C)n1C
inactive |  | O=c1c2cc(Cl)ccc2[nH]c(=S)n1Cc1ccco1
inactive |  | Cn1cccc1C1NC(=O)c2c(sc3c2CCC(C(C)(C)C)C3)N1 (centres undefined)
inactive |  | Cc1cc2cc(CN(CCN3CCOCC3)C(=O)Nc3ccccc3F)c(=O)[nH]c2cc1C
inactive |  | CN1CCN(CC(O)COCc2ccc3c(c2)OCO3)CC1 (centres undefined)
inactive |  | Cn1c(=O)c2c(-c3ccc(C(C)(C)C)cc3)n(N3CCOCC3)cc2n(C)c1=O
inactive |  | Cc1[nH]n(-c2ccccc2)c(=O)c1S(=O)(=O)c1ccccc1
inactive |  | O=C1N(CN2CCN(c3cccc(Cl)c3)CC2)c2ccccc2C12OCCCO2
inactive |  | COc1ccc(-c2noc(CCC(N)=O)n2)cc1OC
 | 2330 | CNc1nc(C)c(C#N)c(-c2ccccc2)c1C(C)=O
inactive |  | Cc1nc2ccc(CCO)cc2s1
inactive |  | N#CC1=C(N)Oc2n[nH]c(-c3cccs3)c2C1c1ccsc1 (centres undefined)

outcome | EC50 [nM] | Compound
inactive |  | CCN(CC)CCOc1c(Br)ccc2c1sc1nc3n(c(=O)c12)CCC3
inactive |  | COCCCNc1c2c3c(cccc3[nH]c1=O)C(=O)c1ccccc1-2
inactive |  | N#CC1=C(N)n2c(s/c(=C\c3ccco3)c2=O)=C(C#N)C1c1ccco1 (centres undefined)
inactive |  | O=C(OCCCCN1C(=O)c2ccccc2C1=O)c1n[nH]c2ccccc12
inactive |  | CCCc1nc(N2CCOCC2)c(C#N)c2c1CCCC2
inactive |  | CCC(=O)N1CCc2cc(S(=O)(=O)NCCC(=O)NC3CCCc4ccccc43)ccc21 (centres undefined)
inactive |  | CCOc1ccccc1C1NC(=O)NC(C)=C1C(=O)OC1CCCCC1 (centres undefined)
inactive |  | O=C1CC(c2ccsc2)c2cc3c(cc2N1)OCCO3 (centres undefined)
inactive |  | COc1ccc(C2CC(=O)Nc3ccccc3S2(=O)=O)cc1OC (centres undefined)
inactive |  | Fc1ccc(-c2cc(C(F)(F)F)nc(-n3cncn3)n2)cc1
inactive |  | COc1ccc(CCNS(=O)(=O)c2ccc3c(c2)OCCO3)cc1OC
inactive |  | CCOC(=O)c1nn(-c2ccccc2C)c(=O)c(C#N)c1C
inactive |  | O=S(=O)(Nc1cc(Cl)ccc1N1CCCCC1)c1cccs1
inactive |  | Cn1c(=O)c2c(nc(SCCCO)n2Cc2ccccc2Cl)n(C)c1=O
inactive |  | CSc1ccc(C2C(C#N)=C(N)N(c3ccccc3)C3=C2C(=O)CCC3)cc1 (centres undefined)
inactive |  | COc1cc(OC)cc(C(=O)Nn2cc(C(=O)N3CCN(C)CC3)c3ccccc3c2=O)c1
inactive |  | COc1ccccc1NC(=O)CC1Nc2ccccc2NC1=O (centres undefined)
 | 1970 | COc1ccc(OC)c(/C=N/c2oc(-c3ccco3)c(-c3ccco3)c2C#N)c1
inactive |  | CCOC(=O)c1c(-c2ccsc2)csc1N
inactive |  | CC(C)OC(=O)CSc1nnc(-c2cnccn2)n1-c1ccc(Cl)cc1
inactive |  | CCCc1cc(=O)[nH]c(NCc2ccc(Cl)cc2)n1
inactive |  | CNc1nc(C)c(C(=O)OCC(=O)OC)s1
